Results from patent publication US20190256474A1, “N-PHENYL-2-(3-PHENYL-6-OXO-1,6-DIHYDROPYRIDAZIN-1-YL)ACETAMIDE DERIVATIVES FOR TREATING CYSTIC FIBROSIS” (Proteostasis Therapeutics, Inc., priority 2016, published 2019).

Target: T1, ΔF508-CFTR (Homo sapiens, UniProt P13569, DEL508-508)
T1 construct: Primary lung epithelial cells homozygous for the Cystic Fibrosis-causing ΔF508 mutation were differentiated; endogenous in cells; host or cells: primary human bronchial epithelial cells (hBE), ΔF508/ΔF508
T1 sequence (P13569 with tags, fused parts or gaps DEL508-508): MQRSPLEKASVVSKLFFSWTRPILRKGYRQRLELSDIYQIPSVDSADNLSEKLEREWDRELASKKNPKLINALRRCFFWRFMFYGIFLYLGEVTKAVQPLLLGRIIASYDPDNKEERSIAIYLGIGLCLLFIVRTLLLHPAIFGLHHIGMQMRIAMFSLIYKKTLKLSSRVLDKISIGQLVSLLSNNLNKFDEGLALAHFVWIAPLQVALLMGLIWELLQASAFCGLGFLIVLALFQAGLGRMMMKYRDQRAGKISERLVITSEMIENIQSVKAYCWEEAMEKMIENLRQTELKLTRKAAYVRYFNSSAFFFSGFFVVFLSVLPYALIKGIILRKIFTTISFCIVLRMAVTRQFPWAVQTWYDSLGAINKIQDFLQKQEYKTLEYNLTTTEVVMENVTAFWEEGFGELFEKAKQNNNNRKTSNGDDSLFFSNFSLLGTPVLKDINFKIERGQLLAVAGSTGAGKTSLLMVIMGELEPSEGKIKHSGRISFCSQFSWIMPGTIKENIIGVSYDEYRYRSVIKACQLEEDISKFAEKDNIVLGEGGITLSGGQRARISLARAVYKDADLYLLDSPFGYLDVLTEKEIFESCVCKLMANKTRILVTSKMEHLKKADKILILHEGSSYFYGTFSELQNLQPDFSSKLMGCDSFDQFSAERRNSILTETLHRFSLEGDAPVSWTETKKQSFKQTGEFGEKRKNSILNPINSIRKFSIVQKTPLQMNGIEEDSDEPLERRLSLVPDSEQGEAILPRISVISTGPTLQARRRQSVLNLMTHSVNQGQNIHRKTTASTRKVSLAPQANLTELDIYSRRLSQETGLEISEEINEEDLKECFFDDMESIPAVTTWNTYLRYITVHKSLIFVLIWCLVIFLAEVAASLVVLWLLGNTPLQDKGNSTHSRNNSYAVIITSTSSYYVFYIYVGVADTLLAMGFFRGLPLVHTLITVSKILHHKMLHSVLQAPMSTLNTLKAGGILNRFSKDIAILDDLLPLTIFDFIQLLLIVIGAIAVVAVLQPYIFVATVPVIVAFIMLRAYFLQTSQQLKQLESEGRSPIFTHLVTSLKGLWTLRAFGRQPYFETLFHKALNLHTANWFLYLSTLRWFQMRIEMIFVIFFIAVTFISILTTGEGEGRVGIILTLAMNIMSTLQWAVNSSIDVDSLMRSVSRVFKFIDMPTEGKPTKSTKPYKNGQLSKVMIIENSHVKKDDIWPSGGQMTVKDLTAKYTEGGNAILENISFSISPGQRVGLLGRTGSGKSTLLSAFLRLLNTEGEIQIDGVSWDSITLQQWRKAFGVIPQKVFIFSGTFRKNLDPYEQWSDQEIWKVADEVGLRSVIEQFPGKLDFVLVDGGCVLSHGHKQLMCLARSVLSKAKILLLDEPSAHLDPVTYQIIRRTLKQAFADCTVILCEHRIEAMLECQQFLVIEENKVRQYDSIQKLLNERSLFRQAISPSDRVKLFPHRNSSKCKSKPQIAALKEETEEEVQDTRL
Assay: hBE equivalent current (Ieq) assay, CFTR activity
Format: cell-based
Conditions: relative to a CFTR amplifier at 3 μM, ΔF508 homozygous hBE, 24 h treatment; for Activity 3 μM: compound at 3 μM; for Activity 10 μM: compound at 10 μM
Description: Primary lung epithelial cells homozygous for the Cystic Fibrosis-causing ΔF508 mutation were differentiated for a minimum of 4 weeks in an air-liquid interface on Costar 24 well HTS filter plates prior to the equivalent current (Ieq) measurements. Cells were apically mucus-washed for 30 minutes 24 h prior to treatment with compounds. The basolateral media was removed and replaced with media containing the compound of interest diluted to its final concentration from DMSO stocks. Treated cells were incubated at 37° C. and 5% CO2 for 24 hours. At the end of the treatment period, the media was changed to the Ieq experimental solution for 2 hours before the experiment and plates are maintained in a CO2-free incubator during this period. The plates containing the cells were then placed in pre-warmed heating blocks at 36° C.±0.5 for 15 minutes before measurements are taken. The transepithelial voltage (VT) and conductance (GT) were measured using a custom 24 channel current clamp (TECC-24) with 24 well electrode manifold. The Ieq assay measurements were made following additions with standardized time periods:
1. The baseline VT and GT values were measured for approximately 20 minutes.
2. Benzamil was added to block ENaC for 15 minutes.
3. Forskolin plus VX-770 were added to maximally activate ΔF508-CFTR for 27 minutes.
4. Bumetanide was added to inhibit the NaK2Cl cotransporter and shut-off secretion of chloride.
The activity data captured was the area under the curve (AUC) for the traces of the equivalent chloride current. The AUC was collected from the time of the forskolin/VX-770 addition until the inhibition by bumetanide addition. Correction in response to compound treatment was scored as the increase in the AUC for compound-treated samples over that of vehicle-treated samples.
The results are shown below in Table 1. + indicates activity <150% of a CFTR amplifier with compound at concentration shown and amplifier at 3 μM; ++ indicates activity >150% of a CFTR amplifier with compound at concentration shown and amplifier at 3 μM.

Compound | Activity 3 μM | Activity 10 μM
COc1cccc(-c2cc(Cl)c(=O)n(C(C)C(=O)Nc3cc(F)cc(F)c3)n2)c1 (stereo not drawn) [Compound 22, 2-(5-Chloro-3-(3-methoxyphenyl)-6-oxopyridazin-1(6H)-yl)-N-(3,5-difluorophenyl)propanamide] | + (activity <150% of a CFTR amplifier with compound at concentration shown and amplifier at 3 μM) | + (activity <150% of a CFTR amplifier with compound at concentration shown and amplifier at 3 μM)
COc1cccc(-c2nn(C(C)C(=O)Nc3cc(F)cc(F)c3)c(=O)cc2Cl)c1 (stereo not drawn) [Compound 23, 2-(4-Chloro-3-(3-methoxyphenyl)-6-oxopyridazin-1(6H)-yl)-N-(3,5-difluorophenyl)propanamide] |  | + (activity <150% of a CFTR amplifier with compound at concentration shown and amplifier at 3 μM)
COc1cccc(-c2nn(C(C)C(=O)Nc3cc(F)cc(F)c3)c(=O)cc2-c2ccccc2)c1 (stereo not drawn) [Compound 24, N-(3,5-Difluorophenyl)-2-[3-(3-methoxyphenyl)-6-oxo-4-phenyl-1,6-dihydropyridazin-1-yl]propanamide] | ++ (activity >150% of a CFTR amplifier with compound at concentration shown and amplifier at 3 μM) | ++ (activity >150% of a CFTR amplifier with compound at concentration shown and amplifier at 3 μM)
COc1cccc(-c2cc(-c3ccccc3)c(=O)n(C(C)C(=O)Nc3cc(F)cc(F)c3)n2)c1 (stereo not drawn) [Compound 25, N-(3,5-Difluorophenyl)-2-(3-(3-methoxyphenyl)-6-oxo-5-phenylpyridazin-1(6H)-yl)propanamide] |  | + (activity <150% of a CFTR amplifier with compound at concentration shown and amplifier at 3 μM)
COc1cccc(-c2ccc(=O)n(C(C)C(=O)Nc3cc(O)c(C(C)(C)C)cc3C(C)(C)C)n2)c1 (stereo not drawn) [Compound 26, N-(2,4-Di-tert-butyl-5-hydroxyphenyl)-2-[3-(3-methoxyphenyl)-6-oxo-1,6-dihydropyridazin-1-yl]propanamide] | + (activity <150% of a CFTR amplifier with compound at concentration shown and amplifier at 3 μM) | + (activity <150% of a CFTR amplifier with compound at concentration shown and amplifier at 3 μM)
COc1cccc(-c2ccc(=O)n(C(C)C(=O)Nc3ccc(Cl)c(Cl)c3)n2)c1 (stereo not drawn) [Compound 27, N-(3,4-Dichlorophenyl)-2-[3-(3-methoxyphenyl)-6-oxo-1,6-dihydropyridazin-1-yl]propanamide] | ++ (activity >150% of a CFTR amplifier with compound at concentration shown and amplifier at 3 μM) | ++ (activity >150% of a CFTR amplifier with compound at concentration shown and amplifier at 3 μM)
CC(C(=O)Nc1ccc(C(F)(F)F)cc1)n1nc(-c2ccccc2)ccc1=O (stereo not drawn) [Compound 28, 2-(6-oxo-3-phenyl-1,6-dihydropyridazin-1-yl)-N-[4-(trifluoromethyl)phenyl]propanamide] | ++ (activity >150% of a CFTR amplifier with compound at concentration shown and amplifier at 3 μM) | ++ (activity >150% of a CFTR amplifier with compound at concentration shown and amplifier at 3 μM)
CC(C(=O)Nc1ccc(C(F)(F)F)cc1)n1nc(-c2ccccc2Cl)ccc1=O (stereo not drawn) [Compound 29, 2-[3-(2-Chlorophenyl)-6-oxo-1,6-dihydropyridazin-1-yl]-N-[4-(trifluoromethyl)phenyl]propanamide] | + (activity <150% of a CFTR amplifier with compound at concentration shown and amplifier at 3 μM) | + (activity <150% of a CFTR amplifier with compound at concentration shown and amplifier at 3 μM)
CC(C(=O)Nc1ccc(C(F)(F)F)cc1)n1nc(-c2cccc(Cl)c2)ccc1=O (stereo not drawn) [Compound 30, 2-[3-(3-Chlorophenyl)-6-oxo-1,6-dihydropyridazin-1-yl]-N-[4-(trifluoromethyl)phenyl]propanamide] | ++ (activity >150% of a CFTR amplifier with compound at concentration shown and amplifier at 3 μM) | ++ (activity >150% of a CFTR amplifier with compound at concentration shown and amplifier at 3 μM)
CC(C(=O)Nc1ccc(C(F)(F)F)cc1)n1nc(-c2ccc(Cl)cc2)ccc1=O (stereo not drawn) [Compound 31, 2-[3-(4-Chlorophenyl)-6-oxo-1,6-dihydropyridazin-1-yl]-N-[4-(trifluoromethyl)phenyl]propanamide] | + (activity <150% of a CFTR amplifier with compound at concentration shown and amplifier at 3 μM) | + (activity <150% of a CFTR amplifier with compound at concentration shown and amplifier at 3 μM)
CC(C(=O)Nc1ccc(C(F)(F)F)cc1)n1nc(-c2ccccc2C(F)(F)F)ccc1=O (stereo not drawn) [Compound 32, 2-[6-Oxo-3-[2-(trifluoromethyl)phenyl]-1,6-dihydropyridazin-1-yl]-N-[4-(trifluoromethyl)phenyl]propanamide] | + (activity <150% of a CFTR amplifier with compound at concentration shown and amplifier at 3 μM) | + (activity <150% of a CFTR amplifier with compound at concentration shown and amplifier at 3 μM)
CC(C(=O)Nc1ccc(C(F)(F)F)cc1)n1nc(-c2cccc(C(F)(F)F)c2)ccc1=O (stereo not drawn) [Compound 33, 2-[6-Oxo-3-[3-(trifluoromethyl)phenyl]-1,6-dihydropyridazin-1-yl]-N-[4-(trifluoromethyl)phenyl]propanamide] | ++ (activity >150% of a CFTR amplifier with compound at concentration shown and amplifier at 3 μM) | ++ (activity >150% of a CFTR amplifier with compound at concentration shown and amplifier at 3 μM)
CC(C(=O)Nc1ccc(C(F)(F)F)cc1)n1nc(-c2ccc(C(F)(F)F)cc2)ccc1=O (stereo not drawn) [Compound 34, 2-[6-Oxo-3-[4-(trifluoromethyl)phenyl]-1,6-dihydropyridazin-1-yl]-N-[4-(trifluoromethyl)phenyl]propanamide] | + (activity <150% of a CFTR amplifier with compound at concentration shown and amplifier at 3 μM) | + (activity <150% of a CFTR amplifier with compound at concentration shown and amplifier at 3 μM)
CC(C(=O)Nc1ccc(C(F)(F)F)cc1)n1nc(-c2ccccc2C#N)ccc1=O (stereo not drawn) [Compound 35, 2-[3-(2-Cyanophenyl)-6-oxo-1,6-dihydropyridazin-1-yl]-N-[4-(trifluoromethyl)phenyl]propanamide] | + (activity <150% of a CFTR amplifier with compound at concentration shown and amplifier at 3 μM) | + (activity <150% of a CFTR amplifier with compound at concentration shown and amplifier at 3 μM)
CC(C(=O)Nc1ccc(C(F)(F)F)cc1)n1nc(-c2cccc(C#N)c2)ccc1=O (stereo not drawn) [Compound 36, 2-[3-(3-Cyanophenyl)-6-oxo-1,6-dihydropyridazin-1-yl]-N-[4-(trifluoromethyl)phenyl]propanamide] | ++ (activity >150% of a CFTR amplifier with compound at concentration shown and amplifier at 3 μM) | ++ (activity >150% of a CFTR amplifier with compound at concentration shown and amplifier at 3 μM)
CC(C(=O)Nc1ccc(C(F)(F)F)cc1)n1nc(-c2ccc(C#N)cc2)ccc1=O (stereo not drawn) [Compound 37, 2-[3-(4-Cyanophenyl)-6-oxo-1,6-dihydropyridazin-1-yl]-N-[4-(trifluoromethyl)phenyl]propanamide] | + (activity <150% of a CFTR amplifier with compound at concentration shown and amplifier at 3 μM) | + (activity <150% of a CFTR amplifier with compound at concentration shown and amplifier at 3 μM)
CCC(C(=O)Nc1ccc(C(F)(F)F)cc1)n1nc(-c2cccc(OC)c2)ccc1=O (stereo not drawn) [Compound 38, 2-[3-(3-Methoxyphenyl)-6-oxo-1,6-dihydropyridazin-1-yl]-N-[4-(trifluoromethyl)phenyl]butanamide] | ++ (activity >150% of a CFTR amplifier with compound at concentration shown and amplifier at 3 μM) | ++ (activity >150% of a CFTR amplifier with compound at concentration shown and amplifier at 3 μM)
COc1cccc(-c2ccc(=O)n(C(C(=O)Nc3ccc(C(F)(F)F)cc3)C3CC3)n2)c1 (stereo not drawn) [Compound 39, 2-Cyclopropyl-2-(3-(3-methoxyphenyl)-6-oxopyridazin-1(6H)-yl)-N-(4-(trifluoromethyl)phenyl)acetamide] | ++ (activity >150% of a CFTR amplifier with compound at concentration shown and amplifier at 3 μM) | ++ (activity >150% of a CFTR amplifier with compound at concentration shown and amplifier at 3 μM)
COc1cccc(-c2ccc(=O)n(C(C(=O)Nc3ccc(C(F)(F)F)cc3)c3ccccc3)n2)c1 (stereo not drawn) [Compound 40, 2-(3-(3-Methoxyphenyl)-6-oxopyridazin-1(6H)-yl)-2-phenyl-N-(4-(trifluoromethyl)phenyl)acetamide] | ++ (activity >150% of a CFTR amplifier with compound at concentration shown and amplifier at 3 μM) | + (activity <150% of a CFTR amplifier with compound at concentration shown and amplifier at 3 μM)
